# Measurements from US20210094933A1, “RAPAFUCIN DERIVATIVE COMPOUNDS AND METHODS OF USE THEREOF” (The Johns Hopkins University, priority 2019, published 2021).
# Numbered stars: 1 amine (or outer) side, 2 acyl side, 3 side chain; on linkers, the order of the positions; unused ones are H or OH. Bridge positions count the residues as written; N and C are the ends. Square brackets hold non-standard residues; d marks the D form. Peptide text beside a SMILES is read from it. * marks the point of attachment. X3 = COc1ccc(CC[C@H](O[*:2])c2cccc(OCC(=O)[*:1])c2)cc1OC; X2 = CN(CCC=CC(=O)OCC(C)(C)C(=O)C(=O)[*:2])[*:1]; 2Nal = N[C@@H](Cc1ccc2ccccc2c1)C(=O)O; dNMeNle = CCCC[C@@H](NC)C(=O)O; dNMeS = CN[C@H](CO)C(=O)O; dPip = O=C(O)[C@H]1CCCCN1; Sar = CNCC(=O)O; tBu = CC(C)(C)*
# What was measured:
# Assay type in all cases: cell-based
# [1] = Cell proliferation assay, single concentration, response relative to DMSO; cell line indicated in each table; details: for Rel. Prolif., NCI-H929: NCI-H929 cells
# Method: (§1) Cell Proliferation Assay (Prolif.) Guo et al. (2018) Nat. Chem. 11:254-63. Specific cell lines are indicated in each assay and cultured in complete growth media. Activity is scored according to the IC50 values relative to DMSO control. “Low” indicates an IC50 greater than 600 nM, “Medium” indicates an IC50 between 300 nM and 600 nM “High” indicates an IC50 less than 300 nM. “Rel.Uptake” refers to uptake activity characterization relative to a single concentration assay. “Low” indicates a response greater than 0.6 times the activity relative to DMSO, “Medium” indicates a response between 0.6 and 0.3 times the activity relative to DMSO, “High” indicates a response less than 0.3 times the activity relative to DMSO.
# [2] = test system: H929; assay: Cell proliferation assay (Prolif.), IC50 relative to DMSO control; details: H929 cells; for Prolif. H929: class relative to DMSO control; for Prolif, H929: IC50 class relative to DMSO control
# Method: as §1
# [3] = Nucleoside uptake assay, single concentration (Rel.Uptake), response relative to DMSO; cell line indicated in each table; details: 293 T cells, nucleoside uptake at single concentration
# Method: Nucleoside Uptake Assay (uptake). Nuceloside uptake assays were performed with using 3H-Thymidine as described in Guo et al. (2018) Nat. Chem, 11:254-63. Specific cell lines are indicated in each assay and cultured in complete growth media. Activity is scored according to the IC50 values relative to DMSO control. “Low” indicates an IC50 greater than 600 nM, “Medium” indicates an IC50 between 300 nM and 600 nM “High” indicates an IC50 less than 300 nM. “Rel.Uptake” refers to uptake activity characterization relative to a single concentration assay. “Low” indicates a response greater than 0.6 times the activity relative to DMSO, “Medium” indicates a response between 0.6 and 0.3 times the activity relative to DMSO, “High” indicates a response less than 0.3 times the activity relative to DMSO.
Structure (SMILES),"Rel. Prolif., A549 ([1]; A549 cells)",Prolif. H929 [2],"Rel. Prolif., NCI-H929 [1]","Prolif, H929 [2]","Rel. Uptake, 293 T [3]"
CCCC[C@@H]1C(=O)N[C@@H](Cc2ccc3ccccc3c2)C(=O)N(C)[C@H](COC(C)(C)C)C(=O)NCC(=O)N(C)CCC=CC(=O)OCC(C)(C)C(=O)C(=O)N2CCCC[C@@H]2C(=O)O[C@@H](CCc2ccc(OC)c(OC)c2)c2cccc(c2)OCC(=O)N(C)CC(=O)N1C [Compound 1] ([Sar][dNMeNle][2Nal][dNMeS](tBu)G[X2][dPip]; linker N-C via X3),low,–,–,–,–
COc1ccc(CC[C@H]2OC(=O)[C@@H]3CCCCN3C(=O)C(=O)C(C)(C)COC(=O)C=CCCN(C)C(=O)[C@@H](Cc3ccccc3)NC(=O)CN(C)C(=O)[C@@H](Cc3ccccc3)NC(=O)[C@H](Cc3ccc(OC(=O)N4CCOCC4)cc3)N(C)C(=O)COc3cccc2c3F)cc1OC [Compound 867],–,high,low,–,–
COc1ccc(CC[C@H]2OC(=O)[C@@H]3CCCCN3C(=O)C(=O)C(C)(C)COC(=O)C=CCCN(C)C(=O)[C@@H](Cc3ccccc3)NC(=O)CN(C)C(=O)[C@@H](Cc3ccccc3)NC(=O)[C@H](Cc3ccc(OC(=O)N4CCOCC4)cc3)N(C)C(=O)COc3cc(F)cc2c3)cc1OC [Compound 868],–,low,low,–,–
COc1cc(CC[C@H]2OC(=O)[C@@H]3CCCCN3C(=O)C(=O)C(C)(C)COC(=O)C=CCCN(C)C(=O)[C@@H](Cc3ccccc3)NC(=O)CN(C)C(=O)[C@@H](Cc3ccccc3)NC(=O)[C@H](Cc3ccc(O)cc3)N(C)C(=O)COc3cccc2c3)cc(OC)c1OC [Compound 1566],–,–,–,medium,medium
COc1cc(CC[C@H]2OC(=O)[C@@H]3CCCCN3C(=O)C(=O)C(C)(C)COC(=O)C=CCCN(C)C(=O)[C@@H](Cc3ccccc3)NC(=O)CN(C)C(=O)[C@@H](Cc3ccccc3)NC(=O)[C@H](Cc3ccc(O)cc3)N(C)C(=O)COc3cccc2c3)cc(O)c1OC [Compound 1567],–,–,–,medium,medium
COc1cc(O)c(CC[C@H]2OC(=O)[C@@H]3CCCCN3C(=O)C(=O)C(C)(C)COC(=O)C=CCCN(C)C(=O)[C@@H](Cc3ccccc3)NC(=O)CN(C)C(=O)[C@@H](Cc3ccccc3)NC(=O)[C@H](Cc3ccc(O)cc3)N(C)C(=O)COc3cccc2c3)cc1OC [Compound 1568],–,–,–,low,low
COc1cc(CC[C@H]2OC(=O)[C@@H]3CCCCN3C(=O)C(=O)C(C)(C)COC(=O)C=CCCN(C)C(=O)[C@@H](Cc3ccccc3)NC(=O)CN(C)C(=O)[C@@H](Cc3ccccc3)NC(=O)[C@H](Cc3ccc(O)cc3)N(C)C(=O)COc3cccc2c3)cc(F)c1OC [Compound 1569],–,–,–,low,low
COc1cc(F)c(CC[C@H]2OC(=O)[C@@H]3CCCCN3C(=O)C(=O)C(C)(C)COC(=O)C=CCCN(C)C(=O)[C@@H](Cc3ccccc3)NC(=O)CN(C)C(=O)[C@@H](Cc3ccccc3)NC(=O)[C@H](Cc3ccc(O)cc3)N(C)C(=O)COc3cccc2c3)cc1OC [Compound 1570],–,–,–,medium,medium
COc1ccc(CC[C@H]2OC(=O)[C@@H]3CCCCN3C(=O)C(=O)C(C)(C)COC(=O)C=CCCN(C)C(=O)[C@@H](Cc3ccccc3)NC(=O)CN(C)C(=O)[C@@H](Cc3ccccc3)NC(=O)[C@H](Cc3ccc(O)cc3)N(C)C(=O)COc3cccc2c3)c(F)c1OC [Compound 1571],–,–,–,low,low
COc1ccc(CC[C@H]2OC(=O)[C@@H]3CN(C(=O)OCC4c5ccccc5-c5ccccc54)CCN3C(=O)C(=O)C(C)(C)COC(=O)C=CCCN(C)C(=O)[C@@H](Cc3ccccc3)NC(=O)CN(C)C(=O)[C@@H](Cc3ccccc3)NC(=O)[C@H](Cc3ccc(O)cc3)N(C)C(=O)COc3cccc2c3)cc1OC [Compound 1572],–,–,–,low,low
COc1ccc(CC[C@H]2OC(=O)[C@@H]3CNCCN3C(=O)C(=O)C(C)(C)COC(=O)C=CCCN(C)C(=O)[C@@H](Cc3ccccc3)NC(=O)CN(C)C(=O)[C@@H](Cc3ccccc3)NC(=O)[C@H](Cc3ccc(O)cc3)N(C)C(=O)COc3cccc2c3)cc1OC [Compound 1573],–,–,–,low,low
COc1ccc(CC[C@H]2OC(=O)[C@@H]3CN(C)CCN3C(=O)C(=O)C(C)(C)COC(=O)C=CCCN(C)C(=O)[C@@H](Cc3ccccc3)NC(=O)CN(C)C(=O)[C@@H](Cc3ccccc3)NC(=O)[C@H](Cc3ccc(O)cc3)N(C)C(=O)COc3cccc2c3)cc1OC [Compound 1574],–,–,–,low,low
COc1ccc(CC[C@H]2OC(=O)[C@@H]3CCCCN3C(=O)C(=O)C(C)(C)COC(=O)C=CCCN(C)C(=O)[C@@H](Cc3ccccc3)NC(=O)CN(C)C(=O)[C@@H](Cc3ccccc3)NC(=O)[C@H](Cc3ccc(O)cc3)N(C)C(=O)COc3ccc(F)c2c3)cc1OC [Compound 1575],–,–,–,low,low
COc1ccc(CC[C@H]2OC(=O)[C@@H]3CCCCN3C(=O)C(=O)C(C)(C)COC(=O)C=CCCN(C)C(=O)[C@@H](Cc3ccccc3)NC(=O)CN(C)C(=O)[C@@H](Cc3ccccc3)NC(=O)[C@H](Cc3ccc(O)cc3)N(C)C(=O)COc3cc(F)cc2c3)cc1OC [Compound 1576],–,–,–,medium,medium
COc1ccc(CC[C@H]2OC(=O)[C@@H]3CCCCN3C(=O)C(=O)C(C)(C)COC(=O)C=CCCN(C)C(=O)[C@@H](Cc3ccccc3)NC(=O)CN(C)C(=O)[C@@H](Cc3ccccc3)NC(=O)[C@H](Cc3ccc(O)cc3)N(C)C(=O)COc3cccc2c3)c(OC)c1OC [Compound 1577],–,–,–,medium,medium
COc1ccc(CC[C@H]2OC(=O)[C@@H]3CCCCN3C(=O)C(=O)C(C)(C)COC(=O)C=CCCN(C)C(=O)[C@@H](Cc3ccccc3)NC(=O)CN(C)C(=O)[C@@H](Cc3ccccc3)NC(=O)[C@H](Cc3ccc(O)cc3)N(C)C(=O)COc3cc2ccc3F)cc1OC [Compound 1578],–,–,–,low,low
COc1ccc(CC[C@H]2OC(=O)[C@@H]3CCCCN3C(=O)C(=O)C(C)(C)COC(=O)C=CCCN(C)C(=O)[C@@H](Cc3ccccc3)NC(=O)CN(C)C(=O)[C@@H](Cc3ccccc3)NC(=O)[C@H](Cc3ccc(O)cc3)N(C)C(=O)COc3cccc2c3F)cc1OC [Compound 1579],–,–,–,medium,medium
COc1ccc(CC[C@H]2OC(=O)[C@@H]3CCCCN3C(=O)C(=O)C(C)(C)COC(=O)C=CCCN(C)C(=O)[C@@H](Cc3ccccc3)NC(=O)CN(C)C(=O)[C@@H](Cc3ccccc3)NC(=O)[C@H](Cc3ccc(O)cc3)N(C)C(=O)COc3cncc2c3)cc1OC [Compound 1580],–,–,–,low,low
COc1cc(OC)c(OC)cc1CC[C@H]1OC(=O)[C@@H]2CCCCN2C(=O)C(=O)C(C)(C)COC(=O)C=CCCN(C)C(=O)[C@@H](Cc2ccccc2)NC(=O)CN(C)C(=O)[C@@H](Cc2ccccc2)NC(=O)[C@H](Cc2ccc(O)cc2)N(C)C(=O)COc2cccc1c2 [Compound 1581],–,–,–,medium,medium
COc1cc(CC[C@H]2OC(=O)[C@@H]3CCCCN3C(=O)C(=O)C(C)(C)COC(=O)C=CCCN(C)C(=O)[C@@H](Cc3ccccc3)NC(=O)CN(C)C(=O)[C@@H](Cc3ccccc3)NC(=O)[C@H](Cc3ccc(O)cc3)N(C)C(=O)COc3cccc2c3)c(OC)c(OC)c1 [Compound 1582],–,–,–,low,low
COc1ccc(OC)c(OC)c1CC[C@H]1OC(=O)[C@@H]2CCCCN2C(=O)C(=O)C(C)(C)COC(=O)C=CCCN(C)C(=O)[C@@H](Cc2ccccc2)NC(=O)CN(C)C(=O)[C@@H](Cc2ccccc2)NC(=O)[C@H](Cc2ccc(O)cc2)N(C)C(=O)COc2cccc1c2 [Compound 1583],–,–,–,low,low
COc1ccc(CC[C@H]2OC(=O)[C@@H]3CCCCN3C(=O)C(=O)C(C)(C)COC(=O)C=CCCN(C)C(=O)[C@@H](Cc3ccccc3)NC(=O)CN(C)C(=O)[C@@H](Cc3ccccc3)NC(=O)[C@H](Cc3ccc(O)cc3)N(C)C(=O)COc3cccc2c3)c(O)c1OC [Compound 1584],–,–,–,low,low
COc1ccc(CC[C@H]2OC(=O)[C@@H]3CCCCN3C(=O)C(=O)C(C)(C)COC(=O)C=CCCN(C)C(=O)[C@@H]3CCCN3C(=O)[C@H](COC(C)(C)C)N(C)C(=O)[C@@H](c3ccccc3)NC(=O)[C@H](C)N(C)C(=O)COc3cc(F)cc2c3)cc1OC [Compound 1595],–,–,–,–,Low (“Low” indicates a response greater than 0.6 times the activity relative to DMSO)
COc1ccc(CC[C@H]2OC(=O)[C@@H]3CCCCN3C(=O)C(=O)C(C)(C)COC(=O)C=CCCN(C)C(=O)[C@@H]3CCCN3C(=O)[C@H](COC(C)(C)C)N(C)C(=O)[C@H](c3ccccc3)NC(=O)[C@H](C)N(C)C(=O)COc3cc(F)cc2c3)cc1OC [Compound 1596],–,–,–,–,Low (“Low” indicates a response greater than 0.6 times the activity relative to DMSO)
